Results from patent US11224565B2, “N-acyldipeptide derivatives and their uses” (NeoStrata Company, Inc., priority 2011, dated 2022).
Peptide text beside a SMILES is read from it.

Experiments:
[1] = system: muscle strength; assay: Pushup performance after topical application to upper chest; format: in vivo, human; conditions: 0.5% (w/v) in WEP442 pH 6.9 on upper chest about 30 minutes before exercise; routinely about 100
Procedure: A subject, performed pushups routinely with a maximal number of about 100 in one hour. The subject topically applied 0.5% (w/v) N—Ac-L-Tyr-L-Tyr-NH2 in WEP442, pH 6.9 solution as prepared in Example 5 to ease the tight muscles on the upper chest about 30 minutes before the exercise. The subject was surprised to find that after the topical application they could now perform pushups with a maximal number of about 200 in one hour without feeling tired. The subject repeated the performance next day with the same enhanced result. To make sure that the enhanced effect on the muscles was not due to the vehicle solution, in the following day the subject topically applied WEP442 solution to the same upper chest about 30 minutes before the exercise. This time the subject could not perform the same number of pushups as before.

[2] = system: near-sightedness (myopia); assay: Topical application around the eyes, eye vision (myopia); format: in vivo, human; conditions: person
Text: Typical examples of improving eye vision are described as follows.
Each time their vision in both eyes got worse, and they required changes in contact lenses in past years. This time, 6 weeks before their checkup, the subject topically applied twice daily 0.5% (w/v) N—Ac-L-Tyr-L-Tyr-NH2 in WEP442, pH 6.7 (Example 5) on the skin around and outside of eye areas and periorbital regions for 6 weeks.
Each time their vision in both eyes worsened, and they required changes in the prescription for their contact lenses in the past years. This time, one month before their checkup, the subject topically applied once daily 0.5% (w/v) N—Ac-L-Tyr-L-Tyr-NH2 in WEP442, pH 6.7 (Example 5) on the skin around and outside of eye areas and periorbital regions for 4 weeks.

[3] = system: varicose veins; assay: Topical treatment of varicose veins; format: in vivo, human; conditions: 0.5% (w/v) in WEP442 topically twice daily, right lower leg, end of four weeks
Text: A subject had multiple varicose veins in their right lower leg for many years resistant to any kind of topical treatments including high potency alpha-hydroxyacids. The lesions of varicose veins covered an area of skin measuring 5 cm×10 cm and appeared more prominent with advancing age. The subject topically applied twice daily 0.5% (w/v) N—Ac-L-Tyr-L-Tyr-NH2 in WEP442 solution as prepared in Example 5. […] It is believed that continued topical application will eradicate the varicose veins.

[4] = system: osteoarthritis of both knees; assay: Intra-articular injections in knee osteoarthritis; format: in vivo, human
Procedure: Bioactive dipeptide derivative of the present invention as potential treatment of knee osteoarthritis by intra-articular injections.
A subject had severe osteoarthritis of both knees for four and half years. Prior therapy had included intra-articular injections of corticosteroids and hyaluronic acid as well as celecoxib (Celebrex) orally (200 mg) twice daily. Such therapy had provided only mild transitory relief of knee pain and edema, and edema of lower legs.
Intra-articular injections of 0.2% (w/v) N—Ac-L-Val-L-Ala-NH2 in water, 1 ml (2 mg) as prepared in Example 22 were administered to each knee. The pains in both knees disappeared 10-15 minutes after the injections, and the relief of pains lasted for 24 hours. Edema and inflammation of the knees and lower legs had diminished for approximately the same 24 hour period. Repeat injections of the same composition were administered once a week for five weeks to provide continued relief of pain, edema and inflammation.
In another trial, intra-articular injections of 0.2% (w/v) N—Ac-L-Val-L-Ala-NH2 with 1% (w/v) methyl cellulose in water, 0.4 ml (0.8 mg) as prepared in Example 22 were also administered to each knee at different times. The pains in both knees disappeared 10-15 minutes after the injections, and the relief of pains lasted for 24 hours. Edema and inflammation of the knees and lower legs had diminished for approximately the same 24 hour period.
In yet another embodiment, the volunteer subject injected intra-articularly into a knee joint a test composition containing a bioactive dipeptide derivative of the present invention to improve and reduce arthritic inflammation and pain of the joint.

[5] = system: MB231 breast cancer cells; assay: In vitro screen for anti-tumor effects: proliferation of MB231 cells (MTS); format: cell-based; conditions: 20 μg/ml, end of 3 days of incubation, MTS absorbance at 490 nm vs water control
Procedure: A typical in vitro screen for anti-tumor or anti-cancer effects was carried out as follows.
An aliquot of 2,000 MB231 breast cancer cells (breast carcinoma cells) in 100 μl DMEM complete media (Sigma Chemical Co.) was plated in a 96 well plate containing at a concentration of 20 μg/ml a test substance or control water. To measure proliferation of the cancer cells, an aliquot of 20 μl of MTS reagent (Promega Co.) was added to each well and the cells were incubated at […] for a total of three days. The cells rapidly metabolized MTS reagent and the metabolized MTS reagent was measured at 490 nm at the end of days 1, 2 and 3. The reading was proportional to the number of cancer cells. The decrease in absorbance at each time point indicated fewer cancer cells. At the end of day 3, the decrease in absorbance with respect to the control indicated the inhibition by the test substance.

[6] = system: interleukin-6 (IL-6) in THP-1 leukemia cells; assay: In vitro screen for anti-inflammatory effects: angiocidin-induced IL-6 in THP-1 cells (ELISA); format: cell-based, human; conditions: 100 μg/ml for 24 hours, then angiocidin 10 μg/ml for 24 hours
Procedure: A typical in vitro screen for anti-inflammatory effects was carried out as follows.
THP-1 leukemia cells (monocytic leukemic human cell line) were cultured and either untreated or treated with a bioactive dipeptide derivative (100 μg/ml) of the present invention for 24 hours. The untreated or treated leukemia cells were then treated with angiocidin (10 μg/ml) for 24 hours to induce interleukin-6 (IL-6) which was an indicator of the inflammation. The induced IL-6 was measured quantitatively by ELISA (enzyme-linked immunosorbent assay). […] Therefore, the bioactive dipeptide derivatives of the present invention, such as N—Ac-L-Val-L-Ala-NH2, have the potential use as nonsteroidal anti-inflammatory substances.

[7] = system: skin cut with an open wound; assay: Topical treatment of skin wound; format: in vivo, human; conditions: 0.5% (w/w) cream twice daily on 2 cm open wound
Text: The subject topically applied twice daily 0.5% (w/w) N—Ac-L-Val-L-Ala-NH2 cream as formulated in Example 2 on the wound. […] At the end of 5 days, the wound had healed nearly completely, and treated skin appeared normal without any signs of scar formation. The wound had 95-100% improvement as judged by clinical evaluation.

[8] = 0.2% (w/v) in water, 1 ml (2 mg) intra-articular per knee
[9] = 0.2% (w/v) with 1% (w/v) methyl cellulose in water, 0.4 ml (0.8 mg) intra-articular per knee

Compound | maximal number of pushups in one hour [1] | vision in both eyes at yearly checkup ([2]; 0.5% (w/v) in WEP442 pH 6.7 once daily on skin around eyes for 4 weeks) | vision in both eyes at yearly checkup ([2]; 0.5% (w/v) in WEP442 pH 6.7 twice daily on skin around eyes for 6 weeks) | appearance of varicose vein lesions [3] | duration of relief of pains [4, 8] [h] | period of diminished edema and inflammation of knees and lower legs [4, 8] [h] | time after injection until pains in both knees disappeared [4, 8] [min] | duration of relief of pains [4, 9] [h] | period of diminished edema and inflammation of knees and lower legs [4, 9] [h] | time after injection until pains in both knees disappeared [4, 9] [min] | inhibition of the growth of breast cancer cells [5] | inhibition of the production of IL-6 [6] | improvement of wound as judged by clinical evaluation ([7]; end of 5 days) | wound pain after topical application ([7]; left leg)
CC(=O)N[C@@H](Cc1ccc(O)cc1)C(=O)N[C@@H](Cc1ccc(O)cc1)C(N)=O [N-Ac-L-Tyr-L-Tyr-NH2] (Ac-Tyr-Tyr-NH2) | about 200 | did not worsen | did not worsen | appeared less prominent | – | – | – | – | – | – | – | – | – | –
CC(=O)N[C@H](C(=O)N[C@@H](C)C(N)=O)C(C)C [N-Ac-L-Val-L-Ala-NH2] (Ac-Val-Ala-NH2) | – | – | – | – | 24 | ~24 | 10 to 15 | 24 | ~24 | 10 to 15 | approximately 12% | approximately 70% | 95-100% | stopped within a few minutes
